The numbers were not newly measured in US7067320B2, “Sensor for luminescense-optical determination of an analyte” (Roche Diagnostics Operations, Inc., priority 2000, dated 2006), which cites them from elsewhere.

Conditions in the first series: not given
A word on the pKa: it is the pH at which an ionisable group is half protonated. Consider `Cc1ccc(O)c(N=Nc2c(O)cc(S(=O)(=O)O)c3ccccc23)c1` [Calmagit], for which the pKa is given as 8.0.

`Cc1c(C2(c3cc(C(C)C)c(O)c(Br)c3C)OS(=O)(=O)c3ccccc32)cc(C(C)C)c(O)c1Br` [Bromothymol blue]: the pKa was 6.7.

`O=C1C=CC(=Nc2ccc(O)cc2)C=C1Cl` [o-chlorophenol-indophenol]: the pKa is 7.1.

Regarding `O=S1(=O)OC(c2cc(Br)c(O)c(Br)c2)(c2cc(Br)c(O)c(Br)c2)c2ccccc21` [Bromophenol blue], the pKa was 3.8.

Dibromoxylenol blue: the pKa is 7.6.

On to `O=C1OC(c2ccc(O)c3ccccc23)(c2ccc(O)c3ccccc23)c2ccccc21` [Naphthol-phthalein], for which the pKa was 6.7.

The series is the same for the next values; noted with them: second value printed in the same cell.
As for `O=C1OC(c2ccc(O)c3ccccc23)(c2ccc(O)c3ccccc23)c2ccccc21` [Naphthol-phthalein], the pKa was 7.9.
